Experimental data published in a melting point compilation (Tetko et al.; mined from patent text by program, amines drawn as free bases though some values may be those of a salt).

| Structure (SMILES) | melting point [°C] |
| --- | --- |
| CC(C)(C)OC(=O)N1C[C@@H]2[C@H](F)CCC(c3ccccc3)(c3ccccc3)[C@@H]2C1 | 200 |
| NCCC(=O)Nc1ccc(Nc2ccccc2)cc1 | 108 to 110 |
| CC(c1ccc2c(=O)c3ccccc3ccc2c1)C1N(c2ccccc2)CCN1c1ccccc1 (stereo not drawn) | 81 to 89 |
| COCCn1cc(C(=O)C(F)(F)F)c2c(Cl)cccc21 | 57 to 59 |
| CCCCCC[C@H](CC(=O)OC(C)(C)C)C(=O)N1C(=O)OC[C@@H]1C(C)C | 50 to 51 |
| Fc1ccccc1C1=NCc2cncn2-c2ccc(Cl)cc21 | 148 to 151 |
| O=C(Nc1cc(C(F)(F)F)ccc1N1CCc2ccccc21)c1ccccc1 | 114 to 119 |
| CC12CCC3C(CC=C4C=C(OCc5ccccc5)CCC43C)C1CCC2=O (stereo not drawn) | 172 to 178 |
| COC(=O)c1ccoc1CCNC(=O)C[C@H]1O[C@H](c2cccc(OC)c2OC)c2cc(Cl)ccc2N(CC(C)(C)CO)C1=O | 81 to 83 |
| CCOc1cc2c(cc1S(=O)(=O)NC(=O)NC)C(CNC(=O)c1cc(Cl)ccc1OC)CCO2 (stereo not drawn) | 207 to 208 |
| O=[N+]([O-])C(F)(CCc1nnc(C(F)(F)C(F)(F)C(F)(F)F)o1)[N+](=O)[O-] | 21 to 22 |
| COc1ccc(-c2cc(S(C)(=O)=O)nnc2-c2ccc(OC)cc2)cc1 | 137 to 140 |
| Cc1cc(C(=O)N2Cc3cccn3Cc3ccccc32)ccc1[N+](=O)[O-] | 246 to 248 |
| CCOC(=O)COc1ccc(NC(=O)NC(=O)c2ccc(C(=N)N)cc2)cc1 | 198 to 200 |
| c1nnc2cc3c(cc2c1NCC1CCCO1)OCO3 (stereo not drawn) | 196 to 198 |
| O=C1c2ccccc2S(=O)(=O)N1CCCCOc1ccc(O)cc1 | 107 to 109 |
| CC(C)(C)c1cc(C2=CCSCC2)c(O)c(C(C)(C)C)c1 | 115 to 119 |
| CC1(C)OCC(C(CS(=O)(=O)c2ccc(-c3ccc(C(F)(F)F)cc3)cc2)N(O)C=O)O1 (stereo not drawn) | 204 to 205 |
| O=c1c(Cl)c(Cl)cnn1CC(Cl)=CCl | 93.7 to 94.6 |
| CC(=O)N1CCN(c2c(F)c(C)c3c(=O)c(C(=O)O)cn(C4CC4)c3c2F)CC1 | 217 to 220 |
| COc1cc(C=CC(=O)c2cc(OC)c(OC)c(OC)c2)cc([N+](=O)[O-])c1O | 123 to 125 |
| Cc1cc(N2CCN(CCc3ccc(NS(C)(=O)=O)cc3)CC2)ccc1NS(C)(=O)=O | 235 to 237 |
| Nc1cc(=O)n(Cc2ccccc2[N+](=O)[O-])[nH]1 | 190 |
| CCN(CC)CCN1C(=O)C(NC(=O)c2ccccc2)C(C)(C)SC1=S (stereo not drawn) | 152 to 153 |
| CCNC(=O)c1cccc(C2(c3ccc(OC(F)(F)F)cc3)N=C(N)N3CCCN=C32)c1 (stereo not drawn) | 129 to 136 |
| COc1cccc(S)c1S(=O)(=O)NC(C)(C)C | 210 |

| Structure (SMILES) | melting point [°C] |
| --- | --- |
| Cc1oc(-c2ccc(F)cc2)cc1C(=O)O | 217 to 218 |
| COc1cc2ccccc2cc1N(C)C(=O)N1CCN(c2cc(Cl)cc(Cl)c2)CC1 | 165 to 167 |
| O=C1NCN(c2ccccc2)C12CCN(C[C@@H]1CCc3ccccc3[C@H]1O)CC2 (relative stereo) | 204 to 205 |
| c1ccc(C(c2ccccc2)N2CC(n3ccnn3)C2)cc1 | 167 to 168 |
| CCn1cc(C(=O)O)c(=O)c2cc3cc(F)c(N4CCNC(c5ccc(F)cc5)C4)cc3nc21 (racemic) | 298 |
| CC12CCC(O)CC1CCC1C2CCC2(C)C(C=NNC(=N)N)CCC12O (stereo not drawn) | 163 to 165 |
| CC(C)(C)COC(=O)C#CC1C(C(=O)OC(C#N)c2cccc(Oc3ccccc3)c2)C1(C)C (stereo not drawn) | 67 |
| Cc1ccccc1C=CC(=O)OCCc1ccccc1 | 52 to 53 |
| Cc1c2c(nc3c(C(F)(F)F)cccc13)CCCNC2 | 78 |
| CC1=C(CCO)c2cc(F)ccc2C1 | 65 to 66.5 |
| COc1ccc2oc(=O)c(S(=O)(=O)Nc3ccc(Br)cc3)cc2c1 | 166 to 168 |
| CN1Cc2ccccc2C(=O)c2cc(CC(=O)O)cc([N+](=O)[O-])c21 | 184 to 186 |
| CCN1CCCC1CNC(=O)c1cc(S(=O)(=O)NC)cc2c1OCCO2 (stereo not drawn) | 136 to 137 |
| Cn1cc(-c2nn(-c3cccc(C(F)(F)F)c3)ccc2=O)c(-c2ccccc2)n1 | 181 to 183 |
| COc1ccc(N)c2nccc(Cl)c12 | 111 to 115 |
| COc1ccc(NC(=O)c2ccc([N+](=O)[O-])cc2)cc1 | 200 |
| CC(=O)c1ccc2c(c1)Sc1cc(C(C)=O)ccc1O2 | 179 |
| N#CSc1c(-c2ccccc2)[nH]c(Cl)c1C#N | 159 |
| COc1cccc(Cn2c(=O)[nH]c3cc(Cl)cc(Cl)c3c2=O)c1 | 216 to 220 |
| Clc1cc(Cl)c2ocnc2c1 | 98 to 99 |
| O=C(O)C1CCC2CCC(=O)N21 (stereo not drawn) | 145 to 148 |
| CCOC(=O)c1cn(CCCl)c2cc(Cl)c(F)cc2c1=O | 222 |
| CCCCCCCCCCCCCCCCOCCSCCOC(=O)NCc1ccccn1 | 55 to 56 |
| CCOC(CN1CCN(c2cccc(-n3cnc4cc(C(C)=O)ccc43)c2)CC1)=NO | 154 to 156 |
| CCn1nc(-c2ccccc2)c(C(=O)OCC(=O)OCc2ccccc2)c(Nc2cnccc2C)c1=O | 115 to 116 |
| CCc1[nH]n(C2CCCC2)c2nc(Cc3ccccc3OC)nc(=O)c1-2 | 145 to 146 |

More lines, now with the values ahead:

| melting point [°C] | Structure (SMILES) |
| --- | --- |
| 106 to 108 | C=C(CC(C)C(=O)O)C(=O)O (stereo not drawn) |
| 154 to 156 | COc1ccc(Cl)c(C(N)=O)c1F |
| 310 | O=c1[nH]c2cc(Cl)ccc2c(O)c1-n1cccn1 |
| 206 to 208 | Cc1nnc(COc2cccc3c2CN(C2CCC(=O)NC2=O)C3=O)o1 (stereo not drawn) |
| 105 to 108 | COC(=O)C(=O)c1cn2c3c(cccc13)CCC2 |
| 106 to 108 | CCOC(=O)C(C)(C)CCCCCOc1ccc(-c2csc(NC(=O)NC3CCCCC3)n2)cc1 |
| 143 | COc1ccc(CNc2nc(CCCC(=O)O)nc3[nH]c4ccccc4c23)cc1Cl |
| 151 to 153 | O=C(O)c1cccc(OCc2ccc(Cl)cc2Cl)c1OCc1ccccc1 |
| 190 to 192 | CC(C)[C@H](N)C(=O)OCc1nc2c(N)nc3ccccc3c2n1CC(C)(C)O |
| 129 to 133 | CS(=O)(=O)c1ncnn1C[C@]1(c2ccccc2Cl)O[C@@H]1c1ccc(Cl)cc1Cl (relative stereo) |
| 205 to 206 | NC1=C(c2cccc(C(F)(F)F)c2)C(=O)C(c2ccccc2)C1 (stereo not drawn) |
| 131 to 133 | O=CC=NNc1c(Cl)cc(C(F)(F)F)cc1Cl |
| 92 | Cc1csc2c1-n1cccc1/C2=N/OCCBr |
| > 160 | CCCCc1nn2cc(-c3ccccc3)nc2n1Cc1ccc(-c2ccccc2-c2nnn[nH]2)cc1 |
| 138 | O=C(c1ccc(F)cc1)C1CCN(CCCn2c(=O)[nH]c3cccc(Cl)c32)CC1 |
| 106 to 108 | c1ccc(C2=Nc3cccnc3Nc3ccccc32)cc1 |
| 245 to 249 | Cc1ccc([N+](=O)[O-])c(C)c1C(=O)c1c[nH]cn1 |
| 175 to 177 | COc1ccc2cc(C(O)C(C)N3CCC(NC(=O)c4ccccc4)CC3)ccc2c1 (stereo not drawn) |
| 78 to 80 | COC(=O)Cc1ccc(S(=O)(=O)c2ccc(Cl)cc2)cc1 |
| 147 to 148 | Cc1ccc(-c2ccc3c(c2)C=C(C(=O)Nc2ccc(CNCc4ccccc4)cc2)CCO3)cc1 |
| 63 to 65 | C[C@@H](N1CCN(C(=O)c2ccc(F)cc2F)CC1)[C@](O)(Cn1cncn1)c1ccc(F)cc1F |
| 164 | COC(=O)c1cc(NC(=O)OC(C)(C)C)c(N)cc1C#Cc1ccccc1 |
| 210 to 213 | CC1(C)CC(=O)c2c(NCc3ccccn3)sc(-c3cc[nH]n3)c2C1 |

| melting point [°C] | Structure (SMILES) |
| --- | --- |
| 83 to 86 | Cc1ccc(Sc2nc(Cl)cc(OCCC(C)C)n2)cc1 |
| 183 to 184 | CCC1(CC)OC(c2ccc(S(C)(=O)=O)cc2)=C(c2ccc(OC)c(F)c2)C1=O |
| 125 to 126 | CCc1nc(C(=O)c2ccc(Cl)cc2Cl)c(C(C)O)n1C(CC)CC (stereo not drawn) |
| 67 to 69 | OCC1Cc2cc(Cl)cc(C3CCCCC3)c2O1 (stereo not drawn) |
| 152 to 153 | CC(Br)C(C)N1C(=O)C2(OCCCO2)c2cc(S(=O)(=O)N3CCCC3)ccc21 (stereo not drawn) |
| > 300 | Nc1nc2c(ncn2OC(CO)COCP(=O)(O)O)c(=O)[nH]1 (stereo not drawn) |
| 249 to 251 | Cc1cc(-c2nnc3c4ccccc4c(OCc4ncn(C)n4)nn23)no1 |
| 164 to 165 | COCCNCCOc1ccc(NC(=O)c2ccccc2NS(C)(=O)=O)cc1 |
| 144 to 145 | COC(=O)c1ccc2c(c1)C(=O)CC(C)(COc1ccc([N+](=O)[O-])cc1)O2 (stereo not drawn) |
| 207 to 209 | Cc1cc2c(-c3ccccc3Cl)c(NC(=O)Nc3ccc(Cl)cc3)c(=O)n(C)c2cc1C |
| 218 | O=c1nc(-c2cccc(-c3ccco3)n2)sc2ccccc12 |
| 197 to 199 | O=C(NC1CCCCC1)NS(=O)(=O)c1ccc(CCNC(=O)N2CCCCC2=O)cc1 |
| 130 to 133 | N#CC=Cc1ccc(Cl)cc1C(=O)c1ccccc1F |
| 132 to 134 | COc1ccc(C(=O)Cc2ccc3ccccc3c2)cc1 |
| 211 to 214 | O=C1c2ccccc2CN1C1CCN(c2ccc(C(O)c3ccccc3)cc2)CC1 (stereo not drawn) |
| 143 to 145 | CS(=O)(=O)c1ccc(-n2nc(C(F)(F)F)nc2-c2ccc(Br)cc2)nc1 |
| 135 | CC(=O)OC1CSC(Oc2cccc(-c3cncc(F)c3)c2)C(OC(C)=O)C1OC(C)=O (stereo not drawn) |
| 151 to 153 | Cc1cc(OC(C)(C)C(=O)O)c(C)c(Br)c1C |
| 92 | C=CCc1c(C)cc(C)c(C(C)O)c1-c1ccc(F)cc1 (stereo not drawn) |
| 209 to 210 | C[C@H]1N(C(=O)c2ccc(OCC(F)(F)C(F)F)cc2)CC(O)O[C@@]1(Cn1cncn1)c1ccc(F)cc1F (relative stereo) |
| 184 | NC(=O)CCNc1ccc([N+](=O)[O-])cc1OCCO |
| 109 to 112 | C[C@@H](n1cnc2cc(Br)ccc2c1=O)[C@](O)(Cn1cncn1)c1ccc(F)cc1F |
| 175 to 178 | Cc1cccc(C)c1C(=O)Oc1cc([N+](=O)[O-])cc([N+](=O)[O-])c1OC(=O)c1c(C)cccc1C |
